Measurements reported in article PMC4306938, “Araguspongine C Induces Autophagic Death in Breast Cancer Cells through Suppression of c-Met and HER2 Receptor Tyrosine Kinase Signaling” (Marine Drugs, 2015).

What was measured:
c-Met [1] = target: T1, c-Met (Homo sapiens, UniProt P08581); assay: cell-free Z-LYTE Tyr6 peptide kinase assay, dose-response; assay type: biochemical
c-Met [2] = target: T1, c-Met; assay: cell-free Z-LYTE Tyr6 peptide kinase assay, positive control measured by the authors; assay type: biochemical

T1 sequence (P08581 25-307): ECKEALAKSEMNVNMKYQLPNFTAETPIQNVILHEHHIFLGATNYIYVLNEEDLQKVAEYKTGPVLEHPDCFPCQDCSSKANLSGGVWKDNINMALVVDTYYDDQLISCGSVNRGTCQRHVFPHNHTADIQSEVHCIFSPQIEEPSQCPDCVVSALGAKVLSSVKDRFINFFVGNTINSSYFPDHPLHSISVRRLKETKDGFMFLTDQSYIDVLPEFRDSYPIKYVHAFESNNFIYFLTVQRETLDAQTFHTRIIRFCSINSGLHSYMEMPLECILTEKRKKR
T1 sequence (P08581 308-1390): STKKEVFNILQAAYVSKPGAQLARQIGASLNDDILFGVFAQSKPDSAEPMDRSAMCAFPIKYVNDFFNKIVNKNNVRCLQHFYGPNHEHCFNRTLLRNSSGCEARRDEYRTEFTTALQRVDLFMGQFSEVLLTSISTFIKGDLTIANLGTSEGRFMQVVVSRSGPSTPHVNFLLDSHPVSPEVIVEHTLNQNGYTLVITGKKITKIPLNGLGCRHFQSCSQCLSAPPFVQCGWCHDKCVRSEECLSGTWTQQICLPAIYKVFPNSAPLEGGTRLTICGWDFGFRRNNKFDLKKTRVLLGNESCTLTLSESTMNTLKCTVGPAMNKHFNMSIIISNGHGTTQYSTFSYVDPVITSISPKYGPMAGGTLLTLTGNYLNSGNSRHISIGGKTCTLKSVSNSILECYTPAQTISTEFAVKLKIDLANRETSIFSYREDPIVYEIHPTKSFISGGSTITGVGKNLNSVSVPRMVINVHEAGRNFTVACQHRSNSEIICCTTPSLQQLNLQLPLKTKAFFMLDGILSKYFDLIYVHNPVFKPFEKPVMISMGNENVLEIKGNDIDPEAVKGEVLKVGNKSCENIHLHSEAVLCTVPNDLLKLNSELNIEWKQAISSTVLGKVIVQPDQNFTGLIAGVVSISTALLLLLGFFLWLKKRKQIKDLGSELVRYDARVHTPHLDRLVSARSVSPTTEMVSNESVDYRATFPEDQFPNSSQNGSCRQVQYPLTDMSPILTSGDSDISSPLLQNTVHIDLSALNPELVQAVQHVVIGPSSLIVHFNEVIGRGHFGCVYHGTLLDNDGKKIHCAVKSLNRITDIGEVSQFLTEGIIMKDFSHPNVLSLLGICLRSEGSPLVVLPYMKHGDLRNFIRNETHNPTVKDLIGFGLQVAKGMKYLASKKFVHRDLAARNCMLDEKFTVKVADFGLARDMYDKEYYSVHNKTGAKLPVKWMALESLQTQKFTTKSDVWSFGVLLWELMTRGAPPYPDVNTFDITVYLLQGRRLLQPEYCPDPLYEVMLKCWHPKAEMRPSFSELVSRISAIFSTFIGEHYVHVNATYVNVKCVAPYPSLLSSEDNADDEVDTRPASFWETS

SMILES	IC50 (c-Met [1]) [µM]	IC50 (c-Met [2]) [µM]
O[C@]12CCCCCC[C@@H]3CCN4CCC[C@](O)(CCCCCC[C@@H]5CCN(CCC1)[C@H]2O5)[C@@H]4O3 [ARG C, Araguspongine C]	19.9	
C/C=C(/C=O)[C@@H](CC=O)CC(=O)OCCc1ccc(O)cc1 [OC, (−)-Oleocanthal]		5
